Patent US12157717B2, “Compounds for the treatment of bovine or swine respiratory disease” (Intervet Inc., priority 2018, dated 2024)
≈ marks a conversion by molar mass, not a printed value.

Legend:
Format in all cases: cell-based
[1] = tested on: Pasteurella multocida PM 10775 (080130003051); assay: MIC, broth-microdilution (CLSI), strain PM 10775; conditions: Pasteurella multocida 080130003051, BRD field isolate
Protocol: (§1) The Minimum inhibitory concentrations (MIC) of compounds according to the invention for a number of veterinary bacterial pathogens were determined by the broth-microdilution method according to CLSI document VETO 1-A4.
(§2) Microdilution trays containing a doubling dilution series of the test compound were used for the tests. The MIC results were interpreted according to the CLSI documents VET01-S3. The lowest concentration of compound at which no visible growth (i.e. no turbidity) detected by the unaided eye was recorded as the MIC.

[2] = tested on: Pasteurella multocida PM 6267 (P 2225 (L386)); assay: MIC, broth-microdilution (CLSI), strain PM 6267; conditions: Pasteurella multocida P 2225 (L386), reference strain (mouse infection strain)
Protocol: as §1, §2

[3] = tested on: Pasteurella multocida PM 12080 (IV102277-0093); assay: MIC, broth-microdilution (CLSI), strain PM 12080; conditions: Pasteurella multocida IV102277-0093, BRD field isolate
Protocol: as §1, §2

[4] = tested on: Pasteurella multocida PM 6391 (ATCC 43137); assay: MIC, broth-microdilution (CLSI), strain PM 6391; conditions: Pasteurella multocida ATCC 43137, reference strain
Protocol: as §1, §2

[5] = tested on: Mannheimia haemolytica MH 13093 (XB0472-6014.1); assay: MIC, broth-microdilution (CLSI), strain MH 13093; conditions: Mannheimia haemolytica XB0472-6014.1, BRD field isolate
Protocol: as §1, §2

[6] = tested on: Mannheimia haemolytica MH 13065 (XB0446-6003.9); assay: MIC, broth-microdilution (CLSI), strain MH 13065; conditions: Mannheimia haemolytica XB0446-6003.9, BRD field isolate
Protocol: as §1, §2

[7] = tested on: Mannheimia haemolytica MH 12587 (1071), macrolide-resistance: erm+, E+; assay: MIC, broth-microdilution (CLSI), strain MH 12587; conditions: Mannheimia haemolytica 1071, BRD field isolate
Protocol: as §1, §2

[8] = tested on: Mannheimia haemolytica MH 6357 (M7/2); assay: MIC, broth-microdilution (CLSI), strain MH 6357; conditions: Mannheimia haemolytica M7/2, reference strain (cattle infection strain)
Protocol: as §1, §2

[9] = tested on: Mannheimia haemolytica MH 10720 (154); assay: MIC, broth-microdilution (CLSI), strain MH 10720; conditions: Mannheimia haemolytica 154, BRD field isolate
Protocol: as §1, §2

[10] = tested on: Mannheimia haemolytica MH 6374 (ATCC 33396); assay: MIC, broth-microdilution (CLSI), strain MH 6374; conditions: Mannheimia haemolytica ATCC 33396, reference strain
Protocol: as §1, §2

Compound | MIC PM 10775 [1] [µM] | MIC PM 6267 [2] [µM] | MIC PM 12080 [3] [µM] | MIC PM 6391 [4] [µM] | MIC MH 13093 [5] [µM] | MIC MH 13065 [6] [µM] | MIC MH 12587 [7] [µM] | MIC MH 6357 [8] [µM] | MIC MH 10720 [9] [µM] | MIC MH 6374 [10] [µM]
C=CCNCc1ccc(C#Cc2ccc(C(=O)NC(C(=O)NC)C(=O)NO)cc2)cc1 (stereo not shown) [Compound 2] | ≤0.1 | 0.2 (≈ 0.0841 µg/mL) | ≤0.1 | 0.4 (≈ 0.168 µg/mL) | 1.6 (≈ 0.673 µg/mL) | 0.8 (≈ 0.336 µg/mL) | 0.8 (≈ 0.336 µg/mL) | 0.8 (≈ 0.336 µg/mL) | 0.4 (≈ 0.168 µg/mL) | 1.6 (≈ 0.673 µg/mL)
CNC(=O)C(NC(=O)c1ccc(C#Cc2ccc(CNCc3ccccn3)cc2)cc1)C(=O)NO (stereo not shown) [Compound 13] | ≤0.1 | ≤0.1 | ≤0.1 | 0.2 (≈ 0.0943 µg/mL) | 0.8 (≈ 0.377 µg/mL) | 1.6 (≈ 0.754 µg/mL) | 1.6 (≈ 0.754 µg/mL) | 0.8 (≈ 0.377 µg/mL) | 0.2 (≈ 0.0943 µg/mL) | 0.8 (≈ 0.377 µg/mL)
C#CCNCc1ccc(C#Cc2ccc(C(=O)NC(C(=O)NC)C(=O)NO)cc2)cc1 (stereo not shown) [Compound 20] | ≤0.1 | ≤0.1 | ≤0.1 | ≤0.1 | 0.4 (≈ 0.167 µg/mL) | 0.2 (≈ 0.0837 µg/mL) | 0.8 (≈ 0.335 µg/mL) | 0.2 (≈ 0.0837 µg/mL) | ≤0.1 | 0.2 (≈ 0.0837 µg/mL)
CNC(=O)C(C(=O)NO)N(C)C(=O)c1ccc(C#Cc2ccc(CNCc3ccccc3)cc2)cc1 (stereo not shown) [Compound 23] | ≤0.1 | 0.4 (≈ 0.194 µg/mL) | 0.8 (≈ 0.388 µg/mL) | 1.6 (≈ 0.775 µg/mL) | 1.6 (≈ 0.775 µg/mL) | 1.6 (≈ 0.775 µg/mL) | 3.1 (≈ 1.5 µg/mL) | 1.6 (≈ 0.775 µg/mL) | 0.4 (≈ 0.194 µg/mL) | 0.8 (≈ 0.388 µg/mL)
CNC(=O)C(NC(=O)c1ccc(C#Cc2ccc(CNCc3cccnc3)cc2)cc1)C(=O)NO (stereo not shown) [Compound 11] | ≤0.1 | ≤0.1 | ≤0.1 | 0.2 (≈ 0.0943 µg/mL) | 1.6 (≈ 0.754 µg/mL) | 0.8 (≈ 0.377 µg/mL) | 0.8 (≈ 0.377 µg/mL) | 0.4 (≈ 0.189 µg/mL) | 0.2 (≈ 0.0943 µg/mL) | 0.8 (≈ 0.377 µg/mL)
CCCNCc1ccc(C#Cc2ccc(C(=O)NC(C(=O)NC)C(=O)NO)cc2)cc1 (stereo not shown) [Compound 10] | 0.2 (≈ 0.0845 µg/mL) | 0.8 (≈ 0.338 µg/mL) | 0.8 (≈ 0.338 µg/mL) | 0.8 (≈ 0.338 µg/mL) | 1.6 (≈ 0.676 µg/mL) | 3.1 (≈ 1.31 µg/mL) | 12.5 (≈ 5.28 µg/mL) | 3.1 (≈ 1.31 µg/mL) | 1.6 (≈ 0.676 µg/mL) | 6.3 (≈ 2.66 µg/mL)
CNC(=O)C(C(=O)NO)N(C)C(=O)c1ccc(C#Cc2ccc(CN3CCOCC3)cc2)cc1 (stereo not shown) [Compound 22] | ≤0.1 | ≤0.1 | 0.4 (≈ 0.186 µg/mL) | 0.4 (≈ 0.186 µg/mL) | 3.1 (≈ 1.44 µg/mL) | 3.1 (≈ 1.44 µg/mL) | 6.3 (≈ 2.93 µg/mL) | 1.6 (≈ 0.743 µg/mL) | 0.4 (≈ 0.186 µg/mL) | 1.6 (≈ 0.743 µg/mL)
CNC(=O)C(C(=O)NO)N(C)C(=O)c1ccc(C#Cc2ccc(CNCCOC)cc2)cc1 (stereo not shown) [Compound 21] | 0.4 (≈ 0.181 µg/mL) | 1.6 (≈ 0.724 µg/mL) | 1.6 (≈ 0.724 µg/mL) | 3.1 (≈ 1.4 µg/mL) | 12.5 (≈ 5.66 µg/mL) | 3.1 (≈ 1.4 µg/mL) | 12.5 (≈ 5.66 µg/mL) | 3.1 (≈ 1.4 µg/mL) | 1.6 (≈ 0.724 µg/mL) | 6.3 (≈ 2.85 µg/mL)
CNC(=O)C(NC(=O)c1ccc(C#Cc2ccc(CNCc3ccc(OC)cc3)cc2)cc1)C(=O)NO (stereo not shown) [Compound 6] | ≤0.1 | ≤0.1 | ≤0.1 | 0.2 (≈ 0.1 µg/mL) | 1.6 (≈ 0.801 µg/mL) | 0.8 (≈ 0.4 µg/mL) | 1.6 (≈ 0.801 µg/mL) | 0.4 (≈ 0.2 µg/mL) | ≤0.1 | 0.8 (≈ 0.4 µg/mL)
CNC(=O)C(NC(=O)c1ccc(C#Cc2ccc(CNCC3CCCO3)cc2)cc1)C(=O)NO (stereo not shown) [Compound 17] | ≤0.1 | ≤0.1 | 0.2 (≈ 0.0929 µg/mL) | 0.4 (≈ 0.186 µg/mL) | 12.5 (≈ 5.81 µg/mL) | 3.1 (≈ 1.44 µg/mL) | 12.5 (≈ 5.81 µg/mL) | 3.1 (≈ 1.44 µg/mL) | 0.8 (≈ 0.372 µg/mL) | 6.3 (≈ 2.93 µg/mL)
